Consider 13 compounds from ChEMBL document CHEMBL1201862, “PubChem BioAssay data set” (2004).

Common to all, as to assay: NCI anticancer screen, dose series, 48 h
Test [1] concerns OVCAR-8.
The test system of test [2] is SR.
Test [3] has as its system SF-539.
Test [4] deals with HOP-92.
For test [5], the system named is CAKI-1.
The subject of test [6] is MOLT-4.
Test [7] has as its system LOX IMVI.
The subject of test [8] is M14.
Test [9] has as its system SNB-75.
Test [10] has as its system A549.
For test [11], the system named is HCT-15.
Test [12] deals with UACC-62.
Test [13] has as its system U-251.
The test system of test [14] is HL-60.
Test [15] deals with UACC-257.
Test [16] deals with SNB-19.
For test [17], the system named is Hs-578T.
In test [18] the test system is NCI/ADR-RES.
Test [19] has as its system MDA-MB-435.

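Tested at 5 concentrations; 48 h exposure; 96-well plates; endpoints linearly interpolated, else capped at highest concentration. GI50: concentration for 50% inhibition of growth.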 Activity calls are given as the source filed them. Rule as the data show it: active = GI50 up to about 1.1 µM and inactive = higher. Some results are limits rather than exact numbers.

Regarding `CN1C(=O)CSC1=S` [3-METHYL-RHODANINE], the GI50 in test [1], in test [2], in test [3], in test [4], in test [5] and in [6] was > 100 µM (inactive) each time. Besides, the GI50 is > 100 µM (inactive) in test [7]; > 100 µM (inactive) in test [8]; > 100 µM (inactive) in test [9]; > 100 µM (inactive) in [10]; greater than 100 µM in test [11]; > 100 µM (inactive) in [12]. The GI50 in test [13], in test [14] and in [15] was > 100 µM (inactive) in each case.

For `COc1ccc(/C=C2\S/C(=N/Nc3nc(-c4ccccc4)cs3)NC2=O)cc1OC`, the GI50 in test [1] was 21 µM (inactive); in test [3], 24.3 µM (inactive); in test [4], 12.6 µM (inactive); in [5] it was 31.8 µM (inactive); in [6], 3.07 µM (inactive); in [7] it was 23.3 µM (inactive). Moreover, the GI50 in test [16] was 25.6 µM (inactive); in test [17], 24.6 µM (inactive); in [8], 32.4 µM (inactive); in test [9] it was 22.8 µM (inactive); in test [18], 20.7 µM (inactive); in test [10] it was 20.9 µM (inactive). Besides, the GI50 in test [11] is 21.5 µM; in test [12], 23.6 µM (inactive); in test [19] it was 25.7 µM (inactive); in test [13], 26.3 µM (inactive); in [14], 6 µM (inactive); in test [15], 33.3 µM (inactive).

With `NC(=O)NC(=O)c1cnccn1`, the GI50 in test [3], in test [4], in [5], in [6], in [7] and in test [16] was > 100 µM (inactive) each time. For the same compound, the GI50 in test [8] was > 100 µM (inactive); in test [18], > 100 µM (inactive); in [10], > 100 µM (inactive); in test [11], greater than 100 µM; in test [12], > 100 µM (inactive); in [19], > 100 µM (inactive). Moreover, the GI50 in test [13] and in test [15] was > 100 µM (inactive) throughout.

On to `COc1cc([C@@H]2OCC3C(c4ccc5c(c4)OCO5)OCC32)cc(OC)c1OC` (stereo not given in full), for which the GI50 in test [1] was 81.7 µM (inactive); in test [2], 91.6 µM (inactive); in test [3], > 100 µM (inactive); in [4] it was 8.97 µM (inactive); in test [5], > 100 µM (inactive); in test [6], 45.5 µM (inactive). For the same compound, the GI50 in test [7] was > 100 µM (inactive); in test [16], 47.8 µM (inactive); in [8] it was > 100 µM (inactive); in [9], 4.33 µM (inactive); in test [10], 71.3 µM (inactive); in [11], greater than 100 µM. Further, the GI50 in test [13] and in test [14] was > 100 µM (inactive) each time.

As to `O=C1c2ccc3c4ccccc4n(Cc4ccccc4)c3c2C(=O)N1c1ccccc1`, the GI50 is 15.6 µM (inactive) in test [1]; 5.61 µM (inactive) in test [2]; 17.1 µM (inactive) in [3]; 11.4 µM (inactive) in test [4]; 12.5 µM (inactive) in test [5]; 3.05 µM (inactive) in test [6]. Moreover, the GI50 was 16.2 µM (inactive) in test [7]; 20 µM (inactive) in test [16]; 14.8 µM (inactive) in test [8]; 13.8 µM (inactive) in test [9]; 17.3 µM (inactive) in test [10]; 10.8 µM in test [11]. The GI50 in test [12] was 17.3 µM (inactive); in test [13], 15.8 µM (inactive); in test [14] it was 4.51 µM (inactive); in [15], 15.8 µM (inactive).

As for `C/C(COc1ccccc1)=N\NC(N)=S`, the GI50 is > 100 µM (inactive) in test [1]; > 100 µM (inactive) in test [2]; 90.4 µM (inactive) in [3]; > 100 µM (inactive) in test [4]; > 100 µM (inactive) in test [5]; > 100 µM (inactive) in test [6]. The GI50 is > 100 µM (inactive) in test [7]; > 100 µM (inactive) in [8]; > 100 µM (inactive) in test [9]; > 100 µM (inactive) in test [10]; greater than 100 µM in test [11]; > 100 µM (inactive) in [12]. For the same compound, the GI50 in [13], in [14] and in [15] was > 100 µM (inactive) in each case.

As for `C=C1C(=O)OC2/C=C(\C)C(O)/C=C\C(C)(O)CC(OC(=O)/C(C)=C/C)C12` (stereo not given), the GI50 in test [1] was 22.1 µM (inactive); in test [2], 11.7 µM (inactive); in test [3] it was 14.1 µM (inactive); in test [4], 29.2 µM (inactive); in [5], 23.6 µM (inactive); in [6], 4.29 µM (inactive). Also, the GI50 in test [7] is 16.2 µM (inactive); in test [16], > 39.6 µM (inactive); in test [8], 17.3 µM (inactive); in test [9] it was > 100 µM (inactive); in test [10] it was > 100 µM (inactive); in [11], 17.2 µM. The GI50 in test [12] was 17.1 µM (inactive); in test [13], > 67.8 µM (inactive); in test [14], 7.91 µM (inactive); in test [15], 27.2 µM (inactive).

As for `COc1ccc2nc3ccccc3c(NCCCCN(C)CCCl)c2c1`, the GI50 in [1] was 0.0254 µM (active); in test [2] it was < 0.01 µM (active); in [3], 0.0689 µM (active); in test [4] it was 0.0604 µM (active); in test [5], 0.0284 µM (active); in [6], < 0.01 µM (active). The GI50 in test [7] is 0.0335 µM (active); in test [16], 0.191 µM (active); in test [8], 0.0711 µM (active); in [9] it was 0.122 µM (active); in test [18] it was 0.0611 µM (active); in test [10], 0.0286 µM (active). Also, the GI50 in test [11] is 0.0185 µM; in test [12], 0.0373 µM (active); in test [19], 0.0783 µM (active); in test [13] it was 0.0344 µM (active); in test [14], 0.0188 µM (active); in [15], 0.581 µM (active).

With `CCOC(=O)CC(NCc1ccc(/N=C/c2nc3ccc(C(F)(F)F)cc3nc2-c2ccccc2)cc1)C(=O)OCC` (stereo not given), the GI50 is > 100 µM (inactive) in test [1]; > 100 µM (inactive) in test [2]; 17.9 µM (inactive) in test [3]; > 100 µM (inactive) in test [4]; > 100 µM (inactive) in test [5]; > 100 µM (inactive) in test [6]. The GI50 is > 100 µM (inactive) in [7]; 27.9 µM (inactive) in [16]; > 80.7 µM (inactive) in [8]; 12.1 µM (inactive) in test [9]; > 100 µM (inactive) in [10]; greater than 100 µM in test [11]. Further, the GI50 is 13.7 µM (inactive) in test [12], 21.8 µM (inactive) in test [13], > 100 µM (inactive) in test [14] and > 100 µM (inactive) in test [15].

For the compound `O=C(Nc1ccc(C(F)(F)F)cc1[N+](=O)[O-])C(=O)C1NC(=S)NC1=O` (stereo not given), the GI50 in test [1] was > 100 µM (inactive); in test [2] it was > 100 µM (inactive); in [3] it was > 100 µM (inactive); in test [4], 43.7 µM (inactive); in test [5], 54.1 µM (inactive); in test [6], > 100 µM (inactive). Moreover, the GI50 in [7] was > 100 µM (inactive); in test [16], > 100 µM (inactive); in test [8], > 100 µM (inactive); in test [9], 26.6 µM (inactive); in test [10] it was > 100 µM (inactive); in test [11], greater than 100 µM. For the same compound, the GI50 in [12], in [13], in [14] and in [15] was > 100 µM (inactive) each time.

On to `C[N+](C)(C)CC(=O)N/N=C(\C(=O)NC1=C(Cl)C(=O)c2ccccc2C1=O)C(C#N)c1csc(-c2ccc([N+](=O)[O-])cc2)n1` (stereo not given), for which the GI50 in [1] was > 100 µM (inactive); in test [2] it was 80.5 µM (inactive); in [3] it was > 100 µM (inactive); in [4], > 100 µM (inactive); in test [5], > 100 µM (inactive); in test [6], > 100 µM (inactive). In addition, the GI50 in test [7] was > 100 µM (inactive); in [16], > 100 µM (inactive); in test [8], > 100 µM (inactive); in test [9], > 100 µM (inactive); in [10], > 100 µM (inactive); in test [11], greater than 100 µM. Besides, the GI50 in test [12], in test [13], in test [14] and in [15] was > 100 µM (inactive) each time.

As to `COC(=O)/C=C(C)/C=C/c1cc(C(C)=O)c(C)o1`, the GI50 is > 100 µM (inactive) in test [1]; > 100 µM (inactive) in [2]; > 100 µM (inactive) in test [3]; 23.2 µM (inactive) in test [4]; > 100 µM (inactive) in test [5]; 62.5 µM (inactive) in [6]. Besides, the GI50 was > 100 µM (inactive) in test [7]; > 100 µM (inactive) in [16]; > 100 µM (inactive) in test [8]; 68.4 µM (inactive) in test [9]; 66.7 µM (inactive) in [10]; greater than 100 µM in [11]. The GI50 in [12] was 82 µM (inactive); in test [13], > 100 µM (inactive); in test [14], > 100 µM (inactive); in [15], > 100 µM (inactive).

Turning to `O=C(NCc1ccc2ccc3cccnc3c2n1)c1ccc[n+](Cc2ccccc2)c1`, the GI50 in test [1] was > 100 µM (inactive); in test [2], > 100 µM (inactive); in test [3], > 100 µM (inactive); in test [4], 37.7 µM (inactive); in test [6] it was > 100 µM (inactive); in test [7] it was > 100 µM (inactive). The GI50 in [16] is > 100 µM (inactive); in test [8] it was > 100 µM (inactive); in [9], > 100 µM (inactive); in test [10] it was > 100 µM (inactive); in test [11], greater than 100 µM; in test [12], > 100 µM (inactive). Also, the GI50 in test [13], in [14] and in test [15] was > 100 µM (inactive) in each case.
